Peptide text beside a SMILES is read from it.
Tests used:
[1] = tested on: Escherichia coli ATCC 25922; conditions: ATCC 25922
Outline: (§1)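 Activity is measured against peptides serially diluted two-fold in water with 0.002% final Polysorbate 80. The cells are in cation-adjusted MHII broth at roughly 5×10^5 CFU/mL, prepared from a 0.5 McFarland suspension in 0.85% NaCl.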

[2] = tested on: Escherichia coli MCR-1 Af 45; conditions: MCR-1 Af 45
Outline: as §1

[3] = tested on: Klebsiella pneumoniae SSI3010; conditions: SSI3010
Outline: as §1

[4] = tested on: human red blood cells (hRBC); test: Hemolysis of human red blood cells; format: cell-based; conditions: red cells of human, 1 h
Outline: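 PBS-washed human red blood cells (20% v/v) were incubated with peptide at 200 μg/mL for 1 h at 37 °C with shaking. Supernatant OD was read at 540 nm after 8-fold dilution. Hemolysis is expressed as percent of the water control.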

| Structure (SMILES) | Escherichia coli ATCC 25922 MIC [1] | Escherichia coli MCR-1 Af 45 MIC [2] | Klebsiella pneumoniae SSI3010 MIC [3] | Hemolysis at 0.2 g/L [4] |
| --- | --- | --- | --- | --- |
| CC[C@H](C)[C@H](NC(=O)[C@@H](NC(=O)[C@@H]1CCCN1C(=O)[C@@H](NC(=O)[C@@H]1CCCN1C(=O)[C@H](CCCCN)NC(=O)CNCCN)C(C)C)[C@@H](C)CC)C(=O)N[C@@H](Cc1ccc(O)cc1)C(=O)N[C@H]1CSSC[C@@H](C(=O)N[C@@H](CCN)C(=O)N[C@@H](CCCNC(=N)N)C(=O)N[C@@H](Cc2ccc(O)cc2)C(=O)O)NC(=O)[C@H](CCCCN)NC(=O)[C@@H](CCN)NC(=O)[C@H]([C@@H](C)O)NC(=O)[C@H](CCN)NC(=O)[C@H](CCCNC(=N)N)NC(=O)[C@H](CC(N)=O)NC1=O [Example 96] (HELM PEPTIDE1{[NCCNCC(=O)[*:2]].K.P.V.P.I.I.Y.C.N.R.[Dab].T.[NCC[C@@H](N[*:1])C(=O)[*:2]].K.C.[Dab].R.Y}$PEPTIDE1,PEPTIDE1,9:R3-16:R3$$$V2.0) | 0.0625 µg/mL | 0.0625 µg/mL | 0.125 µg/mL | 0% |
| CC[C@H](C)[C@H](NC(=O)[C@@H](NC(=O)[C@@H]1CCCN1C(=O)[C@@H](NC(=O)[C@@H]1CCCN1C(=O)[C@H](CCCCN)NC(=O)CNCCCCN)C(C)C)[C@@H](C)CC)C(=O)N[C@@H](Cc1ccc(O)cc1)C(=O)N[C@H]1CSSC[C@@H](C(=O)N[C@@H](CCN)C(=O)N[C@@H](CCCNC(=N)N)C(=O)N[C@@H](Cc2ccc(O)cc2)C(=O)O)NC(=O)[C@H](CCCCN)NC(=O)[C@@H](CCN)NC(=O)[C@H]([C@@H](C)O)NC(=O)[C@H](CCN)NC(=O)[C@H](CCCNC(=N)N)NC(=O)[C@H](CC(N)=O)NC1=O [Example 97] (HELM PEPTIDE1{[NCCCCNCC(=O)[*:2]].K.P.V.P.I.I.Y.C.N.R.[Dab].T.[NCC[C@@H](N[*:1])C(=O)[*:2]].K.C.[Dab].R.Y}$PEPTIDE1,PEPTIDE1,9:R3-16:R3$$$V2.0; N-terminus assumed) | ≤0.03125 µg/mL | ≤0.03125 µg/mL | ≤0.03125 µg/mL | 0% |
| CC[C@H](C)[C@H](NC(=O)[C@@H](NC(=O)[C@@H]1CCCN1C(=O)[C@@H](NC(=O)[C@@H]1CCCN1C(=O)[C@H](CCCCN)NC(=O)CNCCCN)C(C)C)[C@@H](C)CC)C(=O)N[C@@H](Cc1ccc(O)cc1)C(=O)N[C@H]1CSSC[C@@H](C(=O)N[C@@H](CCN)C(=O)N[C@@H](CCCNC(=N)N)C(=O)N[C@@H](Cc2ccc(O)cc2)C(=O)O)NC(=O)[C@H](CCCCN)NC(=O)[C@@H](CCN)NC(=O)[C@H]([C@@H](C)O)NC(=O)[C@H](CCN)NC(=O)[C@H](CCCNC(=N)N)NC(=O)[C@H](CC(N)=O)NC1=O [Example 98] (HELM PEPTIDE1{[NCCCNCC(=O)[*:2]].K.P.V.P.I.I.Y.C.N.R.[Dab].T.[NCC[C@@H](N[*:1])C(=O)[*:2]].K.C.[Dab].R.Y}$PEPTIDE1,PEPTIDE1,9:R3-16:R3$$$V2.0) | ≤0.03125 µg/mL | ≤0.03125 µg/mL | 0.0625 µg/mL | 0% |
| CC[C@H](C)[C@H](NC(=O)[C@@H](NC(=O)[C@@H]1CCCN1C(=O)[C@@H](NC(=O)[C@@H]1CCCN1C(=O)CN(CCN)C(=O)[C@@H](N)CCCCN)C(C)C)[C@@H](C)CC)C(=O)N[C@@H](Cc1ccc(O)cc1)C(=O)N[C@H]1CSSC[C@@H](C(=O)N[C@@H](CCN)C(=O)N[C@@H](CCCNC(=N)N)C(=O)N[C@@H](Cc2ccc(O)cc2)C(=O)O)NC(=O)[C@H](CCCCN)NC(=O)[C@@H](CCN)NC(=O)[C@H]([C@@H](C)O)NC(=O)[C@H](CCN)NC(=O)[C@H](CCCNC(=N)N)NC(=O)[C@H](CC(N)=O)NC1=O [Example 99] (HELM PEPTIDE1{K.[NCCN(CC(=O)[*:2])[*:1]].P.V.P.I.I.Y.C.N.R.[Dab].T.[NCC[C@@H](N[*:1])C(=O)[*:2]].K.C.[Dab].R.Y}$PEPTIDE1,PEPTIDE1,9:R3-16:R3$$$V2.0; N-terminus assumed) | ≤0.03125 µg/mL | ≤0.03125 µg/mL | 0.0625 µg/mL | 0% |
| CC[C@H](C)[C@H](NC(=O)[C@@H](NC(=O)[C@@H]1CCCN1C(=O)[C@@H](NC(=O)[C@@H]1CCCN1C(=O)CN(CCCCN)C(=O)[C@@H](N)CCCCN)C(C)C)[C@@H](C)CC)C(=O)N[C@@H](Cc1ccc(O)cc1)C(=O)N[C@H]1CSSC[C@@H](C(=O)N[C@@H](CCN)C(=O)N[C@@H](CCCNC(=N)N)C(=O)N[C@@H](Cc2ccc(O)cc2)C(=O)O)NC(=O)[C@H](CCCCN)NC(=O)[C@@H](CCN)NC(=O)[C@H]([C@@H](C)O)NC(=O)[C@H](CCN)NC(=O)[C@H](CCCNC(=N)N)NC(=O)[C@H](CC(N)=O)NC1=O [Example 100] (HELM PEPTIDE1{K.[NCCCCN(CC(=O)[*:2])[*:1]].P.V.P.I.I.Y.C.N.R.[Dab].T.[NCC[C@@H](N[*:1])C(=O)[*:2]].K.C.[Dab].R.Y}$PEPTIDE1,PEPTIDE1,9:R3-16:R3$$$V2.0; N-terminus assumed) | 0.03125 µg/mL | ≤0.03125 µg/mL | 0.0625 µg/mL | 0% |
| CC[C@H](C)[C@H](NC(=O)[C@@H](NC(=O)[C@@H]1CCCN1C(=O)[C@@H](NC(=O)[C@@H]1CCCN1C(=O)CN(CCCN)C(=O)[C@@H](N)CCCCN)C(C)C)[C@@H](C)CC)C(=O)N[C@@H](Cc1ccc(O)cc1)C(=O)N[C@H]1CSSC[C@@H](C(=O)N[C@@H](CCN)C(=O)N[C@@H](CCCNC(=N)N)C(=O)N[C@@H](Cc2ccc(O)cc2)C(=O)O)NC(=O)[C@H](CCCCN)NC(=O)[C@@H](CCN)NC(=O)[C@H]([C@@H](C)O)NC(=O)[C@H](CCN)NC(=O)[C@H](CCCNC(=N)N)NC(=O)[C@H](CC(N)=O)NC1=O [Example 101] (HELM PEPTIDE1{K.[NCCCN(CC(=O)[*:2])[*:1]].P.V.P.I.I.Y.C.N.R.[Dab].T.[NCC[C@@H](N[*:1])C(=O)[*:2]].K.C.[Dab].R.Y}$PEPTIDE1,PEPTIDE1,9:R3-16:R3$$$V2.0) | 0.0625 µg/mL | 0.03125 µg/mL | 0.0625 µg/mL | 0% |
| CC[C@H](C)[C@H](NC(=O)CN(CCN)C(=O)[C@@H](NC(=O)[C@@H]1CCCN1C(=O)[C@H](CCCCN)NC(=O)[C@@H](N)CCCCN)C(C)C)C(=O)N[C@H](C(=O)N[C@@H](Cc1ccc(O)cc1)C(=O)N[C@H]1CSSC[C@@H](C(=O)N[C@@H](CCN)C(=O)N[C@@H](CCCNC(=N)N)C(=O)N[C@@H](Cc2ccc(O)cc2)C(=O)O)NC(=O)[C@H](CCCCN)NC(=O)[C@@H](CCN)NC(=O)[C@H]([C@@H](C)O)NC(=O)[C@H](CCN)NC(=O)[C@H](CCCNC(=N)N)NC(=O)[C@H](CC(N)=O)NC1=O)[C@@H](C)CC [Example 102, Lys-Lys-Pro-Val-Ndab-Ile-Ile-Tyr-Cys-Asn-Arg-Dab-Thr-^DDab-Lys-Cys-Dab-Arg-Tyr] (HELM PEPTIDE1{K.K.P.V.[NCCN(CC(=O)[*:2])[*:1]].I.I.Y.C.N.R.[Dab].T.[NCC[C@@H](N[*:1])C(=O)[*:2]].K.C.[Dab].R.Y}$PEPTIDE1,PEPTIDE1,9:R3-16:R3$$$V2.0) | 0.0625 µg/mL | 0.0625 µg/mL | 0.0625 µg/mL | 0% |
| CC[C@H](C)[C@H](NC(=O)[C@@H](NC(=O)[C@@H]1CCCN1C(=O)[C@@H](NC(=O)[C@@H]1CCCN1C(=O)[C@H](CCCCN)NC(=O)[C@@H](N)CCCCN)C(C)C)[C@@H](C)CC)C(=O)N[C@@H](Cc1ccc(O)cc1)C(=O)N[C@H]1CSSC(C)(C)[C@@H](C(=O)N[C@@H](CCN)C(=O)N[C@@H](CCCNC(=N)N)C(=O)N[C@@H](Cc2ccc(O)cc2)C(=O)O)NC(=O)[C@H](CCCCN)NC(=O)[C@@H](CCN)NC(=O)[C@H]([C@@H](C)O)NC(=O)[C@H](CCN)NC(=O)[C@H](CCCNC(=N)N)NC(=O)[C@H](CC(N)=O)NC1=O [Example 103] (HELM PEPTIDE1{K.K.P.V.P.I.I.Y.C.N.R.[Dab].T.[NCC[C@@H](N[*:1])C(=O)[*:2]].K.[Pen].[Dab].R.Y}$PEPTIDE1,PEPTIDE1,9:R3-16:R3$$$V2.0) | ≤0.03125 µg/mL | ≤0.03125 µg/mL | 0.0625 µg/mL | 0% |
| CC[C@H](C)[C@H](NC(=O)[C@@H](NC(=O)[C@@H]1CCCN1C(=O)[C@@H](NC(=O)[C@@H]1CCCN1C(=O)[C@H](CCCCN)NC(=O)[C@@H](N)CCCCN)C(C)C)[C@@H](C)CC)C(=O)N[C@@H](Cc1ccc(O)cc1)C(=O)N[C@H]1CSSC[C@@H](C(=O)N[C@@H](CCN)C(=O)N[C@@H](CCCNC(=N)N)C(=O)N[C@@H](Cc2ccc(O)cc2)C(=O)O)NC(=O)[C@H](CCCCN)NC(=O)[C@@H](CCN)NC(=O)[C@H]([C@@H](C)O)NC(=O)[C@H](CCN)NC(=O)CN(CCCNC(=N)N)C(=O)[C@H](CC(N)=O)NC1=O [Example 104] (HELM PEPTIDE1{K.K.P.V.P.I.I.Y.C.N.[N=C(N)NCCCN(CC(=O)[*:2])[*:1]].[Dab].T.[NCC[C@@H](N[*:1])C(=O)[*:2]].K.C.[Dab].R.Y}$PEPTIDE1,PEPTIDE1,9:R3-16:R3$$$V2.0; N-terminus assumed) | 0.25 µg/mL | 0.125 µg/mL | 0.125 µg/mL | 0% |
